“Also recorded” adds a separate entry of the source.
Experiments:
[1] = test system: apSyN; experiment: Plated ligand assay, apSyN (AP-SynNotch) cells with UAS:H2B-mCherry reporter; type: cell-based; conditions: for reporter (mCherry) activation by plated ligand: apSyN/AP-SynNotch cells with or without BirA-ER (BirA-KDEL)
Description: In order to determine if the apSyN could undergo predicted signaling mechanics of extracellular binding and intracellular domain release based on the presence of the PTM, we used an established Notch signaling assay23 (FIG. 2A). […] We instead interrogated the signaling capabilities by coating tissue culture wells with an anti-Biotin antibody that is specific for biotinamide24.
Next to be evaluated were the signaling properties of AP-SynNotch. Here, the activity of the receptor in response to different ligands was compared in cells with and without BirA-KDEL. Using a receptor containing a Gal4-VP64 ICD, the signaling activity of AP-SynNotch was measured in transfected HEK293 cells containing a stably-integrated reporter gene (UAS:H2B-mCherry). In order to stimulate receptor activation, transfected cells were grown on culture surfaces containing immobilized ligands, and reporter expression levels were measured the next day using flow cytometry (FIG. 11D).

[2] = test system: anti-Biotin ligand; experiment: Coculture luciferase assay, apSyN/BirA receiver cells with anti-Biotin ligand sender cells, soluble competitors; type: cell-based; conditions: different concentrations of the molecules in coculture
Experimental: To examine this behavior more quantitatively, we used an established luciferase-based coculture assay28. Receptor cells were transfected with a luciferase reporter plasmid, and ligand expressing cells were added the next day. Finally cells were lysed after one day of coculturing to examine the luminescence due to luciferase expression (FIG. 3C).
We also saw a similar ability to control activation with small molecules in this coculture assay. […] We sought to develop an inhibition method that is specific for this pathway and therefore allow for additional control of signaling without disrupting native pathways. […] We used the previously established coculture assay while culturing cells in different concentrations of the described molecules and then analyzed the corresponding luciferase expression.
(§1) The luciferase assay used for coculture studies was adapted from Gordon et al28. Synthetic Notch receiver cells were reverse transfected in a 96-well plate (50 k cells per well) with 9.9 ng of UAS:Firefly-Luciferase plasmid and 0.1 ng Nanoluc plasmid per well. 24 hr post-transfection, 80 k sender cells were added to each well. 48 hr post-transfection, cells were lysed (Nano-Glo Dual-Luciferase Reporter Assay System, Promega) and the luminescence was found following the manufacturer's instructions. Each well was normalized to the luminescence output of Nanoluc (transfection control).
Tight-regulation is a requirement of cell-engineered systems in biomedical applications, and such control can be achieved by combining genetic strategies with external drug-control. Thus, it was next sought to design exogenous molecules that could be combined with the present encodable components in order to achieve versatile “chemogenetic” control. Soluble binding proteins can be used to block trans-cellular interactions between endogenous Notch receptors and ligands. It was tested whether soluble biotin-derived compounds could be used to competitively interact between our synthetic ligand and receptor (FIG. 12G). […] In addition to their selective recognition by Anti-Biotinamide, the cell-impermeant nature of biocytin and bis-biotinamide offer the advantageous feature of limiting disruption/inhibition to cell-surface presented components.
as §1, with “al^59.” for “al28.”, “24 hr post-transfection, 80 k sender cells were added to each well.” left out, “(Nano-Go” for “(Nano-Glo”

[3] = test system: antiBiot synthetic Notch; experiment: Plated ligand assay, antiBiot synthetic Notch (Anti-Biotinamide SynNotch) cells; conditions: soluble ligand introduced at the time of plating
Experimental: We first asked if this synthetic receptor cell line could activate to various ligands coated on a 96 well plate.
Nontreated 96-well plates were coated with Fibronectin (5 ng/mL) and plated ligand in 50 μL PBS for 1-hr. Initial experiments were done with a serial dilution of ligand to determine working concentrations. The wells were rinsed three times with 200 μL PBS, and 40 k synthetic Notch receiver cells were plated in each well. Receptor activation was measured 24 hr post-plating via fluorescence microscopy or flow cytometry.
Cells analyzed with an Attune NxT flow cytometer and were gated for living cells by scatter detection. The percent activation was determined by calculating the percentage of cells with mCherry expression levels above a certain threshold.
Nontreated 96-well plates were coated with Fibronectin (5 ng/mL) and plated ligand in 50 μL PBS for 1 hr. […] Receptor activation was measured 24 hr post-plating via fluorescence microscopy or flow cytometry.
Flow Cytometry Cells analyzed with an Attune NxT flow cytometer and were gated for single cells by scatter detection (FIGS. 19A-19C). Output files were analyzed with a custom MATLAB (Mathworks) script. The percent activation was determined by calculating the percentage of cells with mCherry expression levels above a determined threshold using the non-transfected control as a guide.

[4] = test system: avidin; conditions: avidin-based systems; cited from earlier work
[5] = test system: anti-FITC Synthetic Notch; experiment: Coculture of anti-FITC Synthetic Notch cells and anti-biotin ligand cells with biotin-FITC linker (Luciferase reporter); type: cell-based; conditions: FIG. 20
Description: FIG. 20 depicts graphs in which the x-axis of the plot is the biotin-FTC concentration, the y-axis is the extent of signaling (via a Luciferase reporter). The legend gives two different sender-cells used in the coculture—one with the anti-biotin ligand, and one without.
Described herein is the use of biotin-FITC as a small-molecule linker with the ability to induce trans-cellular signaling. In this coculture system, a first group of cells expressed an anti-FITC Synthetic Notch, which can bind one end of the biotin-FITC, and a second group of cells expressed an anti-biotin ligand (described in other Examples herein), which binds the other end.

[6] = test system: scFab-Gal4 and AP-VP64; experiment: UAS:H2B-mCherry reporter cells with scFab-Gal4, AP-VP64 and BirA, treated with soluble biotinamides; type: cell-based; conditions: varying concentrations, compared with biocytin
Experimental: Reporter HEK293 cells with an integrated UAS:H2B-mCherry construct were transfected with a construct containing constitutive expression of AP-VP64 and AntiBiotinamide-scFAB-Gal4. The cells were cotransfected with a construct containing Citrine-HA-BirA. At the time of transfection, samples were incubated with different concentrations of Biocytin and Biotin-cadaverine. Samples were measured the next day with flow cytometry, gating for Citrine expression.
Lastly, it was asked whether intracellular protein complexes could be disrupted using exogenously applied biotinamide. To test this possibility, cells were treated with biocytin as well as biotin-cadaverine, a membrane-permeant biotinamide derivative (6). To measure the disruption of intracellular complexes, BirA was co-expressed alongside scFab-Gal4 and AP-VP64 in UAS:H2B-mCherry reporter cells, and the extent of mCherry expression was quantified from cells treated with varying concentrations of biocytin and biotin-cadaverine (FIG. 18A).

[7] = test system: Anti-Biotinamide SynNotch; experiment: Anti-Biotinamide SynNotch cells on TCO-BSA coated wells with added biotin-tetrazine, flow cytometry; type: cell-based
Description: (FIG. 13A). Receptors that are specific to biotinamide process inputs dependent on the biotinylation state of the ligand. (FIG. 13B). Anti-Biotinamide SynNotch expressing cells activate to both biotin-based and desthiobiotin-based substrates. The cells activate with slightly less adsorbed biotin than desthiobiotin. (FIG. 13C). Cells expressing Anti-Biotinamide SynNotch were cocultured with cells transfected with an AP-tagged cell surface ligand with or without BirA, or non-transfected cells. (FIG. 13D). Biotin-tetrazine (4) is a bispecific molecule that will bind to the Anti-Biotinamide antibody fragment and TCO-(5), which is conjugated to BSA. (FIG. 13E). Anti-Biotinamide SynNotch expressing cells cultured on TCO-conjugated BSA will bind to exogenously added biotin-tetrazine. (FIG. 13F). Anti-Biotinamide SynNotch expressing cells were cultured on wells coated with TCO-BSA and one day later, biotin-tetrazine was added at different concentrations to the wells. At two days after plating, cellular fluorescence was analyzed with flow cytometry.
In an effort to develop synthetic agonists, a bioorthogonal chemical ligation was also exploited in order to convert a soluble biotin derivative into an immobilized (signaling competent) ligand in situ. […]

[8] = free biotin versus biotin with an amide linker; cited from earlier work

C[C@H](NC(=O)Cc1cc(F)cc(F)c1)C(=O)N[C@H](C(=O)OC(C)(C)C)c1ccccc1 [DAPT]
effect of Notch pathway (γ-secretase) inhibitor on mCherry expression ([1]; plated anti-Biotin or anti-myc antibody): ablated mCherry expression in all cases

N[C@@H](CCCCNC(=O)CCCC[C@@H]1SC[C@@H]2NC(=O)N[C@@H]21)C(=O)O [biocytin]
inhibition of cell signaling (luciferase) by competitive binding to the ligand [2]: able to inhibit cell signaling to some degree; also recorded: act as inhibitors of signaling
concentration at which activation was lowered [3]: 3 µM

O=C(O)CCCC[C@@H]1SC[C@@H]2NC(=O)N[C@@H]21 [biotin]
inhibition of cell signaling (luciferase) by competitive binding to the ligand [2]: limited impact on cell signaling

C[C@@H]1NC(=O)N[C@@H]1CCCCCC(=O)O [desthiobiotin]
binding constant, fold less than biotin [4]: 106 fold

Neutravidin: adsorbed biotin-binding protein
reporter (mCherry) activation by plated ligand [1]: able to activate apSyN cells, but has decreased activation at higher concentrations
reporter (mCherry) activation by plated ligand ([1]; listed as neutravidin): can activate the biotinylated receptor

biotin-FITC
signaling capacity versus concentration [5]: low concentrations do not induce signaling, and high concentrations lead to lower signaling

biotin-cadaverine
inhibition of intracellular biotin-dependent reporter (mCherry) expression [6]: more sensitive
inhibition of intracellular biotin-dependent reporter (mCherry) expression ([6]; listed as Biotin-cadaverine): effective competitive inhibitor

biotin-tetrazine
reporter activation ([7]; biotin-tetrazine added one day after plating on TCO-BSA): able to activate reporter expression only when cultured with biotin-tetrazine
inhibition of receptor activation ([7]; high concentrations of biotin-tetrazine): inhibited with high concentrations

bis-biotinamide
inhibition of cell signaling (luciferase) by competitive binding to the ligand [2]: more potent inhibition
inhibition of cell signaling (luciferase) by competitive binding to the ligand ([2]; listed as Bis-biotinamide): increased ability to inhibit cell activation; also recorded: inhibits more effectively

B1: biotinamide-specific antibody: antibody from which the anti-biotinamide single chain variable fragment was developed (antibody)
heavy: EVQLQQSGAELVKPGASVKLSCTSSGFNNKDTFFQWVKQRPEEGLEWIGRIDPANGFTKYDPKFQGKATITVDTSSNTAYLQLNSLTSEDTALYYCTRWDTYGAAWFAYWGQGTLVTVSAAKTTPPSVYPLAPGSAAQTNSMVTLGCLVKGYFPEPVTVTWNSGSLSSGVHTFPAVLQSDLYTLSSSVTVPSSTWPSETVTCNVAHPASSTKVDKKIVPR
light: DIQMTQSPASLSASVGETVTITCRASGNIHNYLSWFQQKQGKSPQLLVYSAKTLADGVPSRFSGSGSGTQYSLKINSLQPEDFGTYYCQHFWSSIYTFGGGTKLEIKRADAAPTVSIFPPSSEQLTSGGASVVCFLNNFYPKDINVKWKIDGSERQNGVLNSWTDQDSKDSTYSMSSTLTLTKDEYERHNSYTCEATHKTSTSPIVKSFNRNEC
binding specificity [8]: does not bind to free biotin but binds to biotin with an amide linker

— US11672828B2, “Cellular receptors and uses thereof” (TRUSTEES OF BOSTON UNIVERSITY, priority 2020, dated 2023)
